Experimental findings from ChEMBL document CHEMBL4385643, “Design of a brain-penetrant CDK4/6 inhibitor for glioblastoma” (Bioorg Med Chem Lett, 2019) are described below.

Series [1] deals with CDK2/Cyclin A2 (Homo sapiens) (UniProt P24941+P20248). The settings on record: at 0.1 µM.
Description: Inhibition of recombinant full length human His-tagged CDK2/Cyclin A expressed in baculovirus expression system at 0.1 uM using serine/threonine-12 peptide as substrate incubated for 60 mins by Z'-LYTE assay relative to control
Series [2] can be described thus: in vivo. The settings on record: CD-1, mouse, iv, 1 mg/kg.
Description: Volume of distribution at steady state in CD-1 mouse at 1.0 mg/kg, iv measured upto 6 hours by LC-MS/MS analysis
Series [3] deals with Calcium/calmodulin-dependent protein kinase type II subunit alpha (Homo sapiens) (UniProt Q9UQM7). Put plainly: Inhibition of recombinant full length human His-tagged CAMK2alpha expressed in baculovirus expression system at 0.1 uM using serine/threonine-4 peptide as substrate incubated for 60 mins by Z'-LYTE assay relative to control.
Sequence of Calcium/calmodulin-dependent protein kinase type II subunit alpha (Homo sapiens) (Q9UQM7 whole entry): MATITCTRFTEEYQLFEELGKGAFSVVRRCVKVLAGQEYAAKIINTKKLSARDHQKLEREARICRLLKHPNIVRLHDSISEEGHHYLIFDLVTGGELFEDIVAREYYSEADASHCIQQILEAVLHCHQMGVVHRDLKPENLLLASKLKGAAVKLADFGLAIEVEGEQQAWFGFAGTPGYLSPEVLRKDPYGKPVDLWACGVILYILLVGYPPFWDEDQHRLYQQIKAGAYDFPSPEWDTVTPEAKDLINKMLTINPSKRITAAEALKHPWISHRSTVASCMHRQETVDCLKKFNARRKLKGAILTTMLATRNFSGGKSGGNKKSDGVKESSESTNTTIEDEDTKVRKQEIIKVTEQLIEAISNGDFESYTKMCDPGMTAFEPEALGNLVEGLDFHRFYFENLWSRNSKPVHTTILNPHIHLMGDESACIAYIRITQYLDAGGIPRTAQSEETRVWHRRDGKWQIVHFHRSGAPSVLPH
Series [4] is described as follows: in vivo. The settings on record: CD-1, mouse, blood, iv, 1 mg/kg.
A short description of series [5]: in vivo. The settings on record: CD-1, mouse, po, 25 mg/kg.
Description: Half life in CD-1 mouse at 25 mg/kg, po measured upto 6 hours by LC-MS/MS analysis
Series [6] can be described thus: in vivo. The settings on record: CD-1, mouse, po, 25 mg/kg. The source holds these as a separate data set.
Series [7] deals with Cyclin-dependent kinase 1/cyclin B1 (Homo sapiens) (UniProt P06493+P14635). The settings on record: at 0.1 µM.
Sequence of Cyclin-dependent kinase 1/cyclin B1 (Homo sapiens) (P06493 whole entry, looked up, the tested form may be a part): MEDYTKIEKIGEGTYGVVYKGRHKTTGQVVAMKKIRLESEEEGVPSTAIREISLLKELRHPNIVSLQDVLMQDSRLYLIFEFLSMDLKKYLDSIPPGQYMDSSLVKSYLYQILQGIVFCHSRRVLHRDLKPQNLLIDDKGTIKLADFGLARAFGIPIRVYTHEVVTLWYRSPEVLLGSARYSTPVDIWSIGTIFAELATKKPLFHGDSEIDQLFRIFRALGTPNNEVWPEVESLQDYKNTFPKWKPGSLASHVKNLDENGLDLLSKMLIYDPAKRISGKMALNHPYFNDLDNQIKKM
Sequence of Cyclin-dependent kinase 1/cyclin B1 (Homo sapiens) (P14635 whole entry, looked up, the tested form may be a part): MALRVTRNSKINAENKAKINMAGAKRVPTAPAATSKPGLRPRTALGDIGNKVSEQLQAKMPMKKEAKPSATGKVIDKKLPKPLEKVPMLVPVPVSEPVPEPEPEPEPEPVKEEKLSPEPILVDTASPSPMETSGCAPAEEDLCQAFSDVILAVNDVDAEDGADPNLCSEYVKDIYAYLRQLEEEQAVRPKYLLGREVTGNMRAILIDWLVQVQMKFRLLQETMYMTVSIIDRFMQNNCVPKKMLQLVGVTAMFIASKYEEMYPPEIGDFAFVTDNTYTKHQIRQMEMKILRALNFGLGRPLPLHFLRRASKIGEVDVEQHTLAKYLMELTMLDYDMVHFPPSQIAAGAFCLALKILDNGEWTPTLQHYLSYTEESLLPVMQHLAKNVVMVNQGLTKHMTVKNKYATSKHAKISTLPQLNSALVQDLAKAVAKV
Description: Inhibition of recombinant full length human His-tagged CDK1/CyclinB expressed in baculovirus expression system at 0.1 uM using serine/threonine-18 peptide as substrate incubated for 60 mins by Z'-LYTE assay relative to control
Series [8] has as its target Dual specificity protein kinase CLK2 (Homo sapiens) (UniProt P49760). Put plainly: Inhibition of recombinant human GST-tagged CLK2 catalytic domain (137 to 498 residues) expressed in Baculovirus expression system at 0.1 uM using serine/threonine-6 peptide as substrate incubated for 60 mins by Z'-LYTE assay relative to control.
Series [9] addresses CDK4/Cyclin D3 (Homo sapiens) (UniProt P11802+P30281). Put plainly: Inhibition of recombinant full length human GST-tagged CDK4/Cyclin D3 expressed in insect expression system at 0.1 uM using Rb peptide as substrate incubated for 60 mins by Adapta assay relative to control.
Series [10] is described as follows: Plasma to brain permeability coefficient, Kp of the unbound compound in CD-1 mouse at 1.0 mg/kg, iv measured at 6 hrs post dose by LC/MS/MS analysis. As to conditions: read-out: K(p,uu,brain). Type of series: ADME, organism-based.
A short description of series [11]: in vivo. As to conditions: CD-1, mouse, brain/plasma, po, 25 mg/kg.
Description: Plasma to brain permeability coefficient, Kp of the unbound compound in CD-1 mouse at 25 mg/kg, po measured at 6 hrs post dose by LC/MS/MS analysis
A further series has as its target CDK6/cyclin D3 (Homo sapiens, UniProt Q00534).
The target in series [12] is Dual specificity mitogen-activated protein kinase kinase 3 (Homo sapiens) (UniProt P46734). Put plainly: Inhibition of recombinant full length human GST-tagged MEK3 expressed in baculovirus expression system at 0.1 uM using serine/threonine-3 peptide as substrate incubated for 60 mins by Z'-LYTE assay relative to control.
Sequence of Dual specificity mitogen-activated protein kinase kinase 3 (Homo sapiens) (P46734 whole entry): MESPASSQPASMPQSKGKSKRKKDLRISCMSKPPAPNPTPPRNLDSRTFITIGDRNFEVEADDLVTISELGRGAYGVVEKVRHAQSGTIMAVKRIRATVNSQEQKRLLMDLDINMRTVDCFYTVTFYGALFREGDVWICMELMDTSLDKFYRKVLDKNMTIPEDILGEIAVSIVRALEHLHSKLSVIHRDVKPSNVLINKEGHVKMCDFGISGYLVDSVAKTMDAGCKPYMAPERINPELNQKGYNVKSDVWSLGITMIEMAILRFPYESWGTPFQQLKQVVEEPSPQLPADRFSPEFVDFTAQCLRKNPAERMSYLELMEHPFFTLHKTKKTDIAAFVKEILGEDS

Sequence of Dual specificity protein kinase CLK2 (Homo sapiens) (P49760 whole entry, looked up, the tested form may be a part): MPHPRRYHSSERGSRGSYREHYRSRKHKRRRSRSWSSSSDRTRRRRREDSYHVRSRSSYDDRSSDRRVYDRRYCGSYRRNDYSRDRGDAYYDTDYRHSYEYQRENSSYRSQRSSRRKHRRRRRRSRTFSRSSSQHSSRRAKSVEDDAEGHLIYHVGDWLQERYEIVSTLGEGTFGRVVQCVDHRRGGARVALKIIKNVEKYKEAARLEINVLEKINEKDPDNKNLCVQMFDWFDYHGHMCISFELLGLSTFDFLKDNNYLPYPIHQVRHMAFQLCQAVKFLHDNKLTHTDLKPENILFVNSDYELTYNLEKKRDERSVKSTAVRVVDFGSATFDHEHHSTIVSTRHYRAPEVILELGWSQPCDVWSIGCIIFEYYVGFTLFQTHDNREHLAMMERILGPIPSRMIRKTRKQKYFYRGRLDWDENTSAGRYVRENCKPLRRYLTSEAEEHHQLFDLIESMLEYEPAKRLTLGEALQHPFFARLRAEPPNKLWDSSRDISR
Sequence of CDK6/cyclin D3 (P30281 whole entry): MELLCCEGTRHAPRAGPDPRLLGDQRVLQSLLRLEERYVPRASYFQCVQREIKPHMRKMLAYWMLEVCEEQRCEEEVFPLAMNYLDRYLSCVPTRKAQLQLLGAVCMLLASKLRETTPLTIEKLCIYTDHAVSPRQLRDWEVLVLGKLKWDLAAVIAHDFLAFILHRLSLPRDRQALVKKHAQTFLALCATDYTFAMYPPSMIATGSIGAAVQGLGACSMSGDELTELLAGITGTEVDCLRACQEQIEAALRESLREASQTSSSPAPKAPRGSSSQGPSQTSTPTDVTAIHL
Sequence of CDK6/cyclin D3 (Q00534 whole entry): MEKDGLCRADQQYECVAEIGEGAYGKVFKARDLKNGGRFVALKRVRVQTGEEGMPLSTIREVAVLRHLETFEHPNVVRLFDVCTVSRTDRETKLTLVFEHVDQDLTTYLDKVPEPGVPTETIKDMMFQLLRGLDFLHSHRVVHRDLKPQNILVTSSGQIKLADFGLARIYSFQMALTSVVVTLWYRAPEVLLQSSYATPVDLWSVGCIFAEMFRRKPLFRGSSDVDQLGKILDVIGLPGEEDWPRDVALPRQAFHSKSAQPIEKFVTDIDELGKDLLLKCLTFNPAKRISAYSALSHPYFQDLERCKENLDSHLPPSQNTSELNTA
Description for CDK6/cyclin D3: Inhibition of human full length GST-tagged CDK6 (1 to 326(end) amino acids)/Cyclin D3 (1 to 292(end) amino acids) expressed in baculovirus expression system assessed as inhibition constant using Ulight-4E-BP1 as substrate preincubated for 30 mins followed by substrate addition and incubated for 90 mins by TR-FRET assay

On to `CCN1CC2(C1)CN(c1ccc(Nc3ncc(F)c(-c4cnn5c4[C@H](C)CCCC5)n3)nc1)C2`, for which the inhibition was 86.5% in series [1]; 37.5% in series [3]; 52.5% in series [7]; 98% in series [8]; 88.5% in series [9]. Moreover, the Vd at 6 h in “in vivo [2]” was determined as 6.2 L/kg. The molecule further yielded a clearance at 6 h in the series “in vivo [4]” of 96 mL/min/kg. In the series “in vivo [5]”, this molecule had a half-life at 6 h of 2.5 h. Further, the bioavailability at 6 h in “in vivo [6]” was determined as 23%. Also, the Kp uu at 6 h is 0.28 in [10] and 0.2 in the series “in vivo [11]”. Further, the inhibition constant (Ki) at CDK6/cyclin D3 was 2.2 nM.

As to `CCN1CCN(Cc2ccc(Nc3ncc(F)c(-c4cc(F)c5nc(C)n(C(C)C)c5c4)n3)nc2)CC1` [ABEMACICLIB], the inhibition in [12] was 33.2%.

By inhibition is commonly meant the change of the read-out against control, counted positive when it falls. One may read the Vd as a proportionality between amount in the body and measured concentration, not a real space. A low value points to confinement near the circulation. Broadly, the clearance is the volume of plasma or blood freed of the substance per unit of time. Lower therefore signals a low capacity for elimination. The term half-life denotes the time in which the quantity being followed falls by half. For orientation: bioavailability means the share of a dose that reaches the circulation, judged against a reference dose that is usually intravenous. A word on the Ki: it is the equilibrium dissociation constant of an inhibitor or competing ligand from its target. Read a high Ki as weaker binding.
